The first assay deals with T1, Endothelin-converting enzyme 1 (Homo sapiens) (UniProt P42892).
T1 sequence (whole entry): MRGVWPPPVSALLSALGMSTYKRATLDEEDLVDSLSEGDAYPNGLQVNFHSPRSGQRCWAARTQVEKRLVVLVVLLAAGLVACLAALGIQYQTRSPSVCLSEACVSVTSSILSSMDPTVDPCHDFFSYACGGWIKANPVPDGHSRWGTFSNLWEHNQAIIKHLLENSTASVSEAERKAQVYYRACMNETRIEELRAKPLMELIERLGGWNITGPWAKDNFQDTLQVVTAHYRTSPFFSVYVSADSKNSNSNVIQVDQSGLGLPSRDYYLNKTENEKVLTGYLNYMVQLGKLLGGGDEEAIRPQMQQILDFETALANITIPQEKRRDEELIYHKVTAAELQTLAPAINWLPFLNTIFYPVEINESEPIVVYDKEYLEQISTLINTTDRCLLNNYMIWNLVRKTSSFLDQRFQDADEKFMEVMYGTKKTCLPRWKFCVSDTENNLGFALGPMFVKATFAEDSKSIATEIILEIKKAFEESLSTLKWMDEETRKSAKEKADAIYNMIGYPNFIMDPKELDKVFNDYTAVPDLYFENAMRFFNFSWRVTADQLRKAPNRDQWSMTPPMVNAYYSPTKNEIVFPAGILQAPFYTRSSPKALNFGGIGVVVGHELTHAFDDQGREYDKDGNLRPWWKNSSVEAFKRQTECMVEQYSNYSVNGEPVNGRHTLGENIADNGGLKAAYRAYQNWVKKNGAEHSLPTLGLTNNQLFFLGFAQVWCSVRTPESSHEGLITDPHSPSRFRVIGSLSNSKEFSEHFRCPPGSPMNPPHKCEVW
Kind of assay: In vitro inhibitory activity was tested against Endothelin converting enzyme 1 at a concentration of 1 uM.
A word on the inhibition: it is the drop in the measured response relative to a control, in per cent. For `CC(C)[C@H](S)C(=O)NC1(C(=O)N[C@@H](Cc2cccc(-c3ccccc3)c2)C(=O)O)CCCC1`, the inhibition was found to be 39%.

The compound `CC(C)[C@H](S)C(=O)NC1(C(=O)N[C@@H](Cc2ccccc2-c2ccccc2)C(=O)O)CCCC1` displayed an inhibition of 0%.

As for `CC(C)[C@H](S)C(=O)NC1(C(=O)N[C@@H](Cc2ccc(-c3ccc(C(F)(F)F)cc3)cc2)C(=O)O)CCCC1`, the inhibition turned out to be 54%.

For the compound `CC(C)[C@H](S)C(=O)NC1(C(=O)NC(Cc2ccc(-c3ccncc3)cc2)C(=O)O)CCCC1` (stereo partly drawn), the inhibition stood at 22%.

Turning to `CC(C)[C@H](S)C(=O)NC1(C(=O)N[C@@H](Cc2ccc(-c3ccccc3)cc2)C(=O)O)CCCC1`, the inhibition worked out at 77%.

Consider `CC(C)[C@H](S)C(=O)NC1(C(=O)N[C@H](Cc2ccc(-c3ccccc3)cc2)C(=O)O)CCCC1`, for which the inhibition was 18%.

`CC(C)[C@H](S)C(=O)NC1(C(=O)N[C@@H](Cc2ccccc2)C(=O)O)CCCC1` registered an inhibition of 26%.

As to `COc1ccc(-c2ccc(C[C@H](NC(=O)C3(NC(=O)[C@@H](S)C(C)C)CCCC3)C(=O)O)cc2)cc1`, the inhibition was 49%.

The target of the next assay is T2, Endothelin-converting enzyme 1 (Homo sapiens, UniProt P42892).
T2 sequence (P42892 whole entry): T1 sequence (whole entry)
Kind of assay: In vitro inhibitory activity was tested against Endothelin converting enzyme 1.
One may read the IC50 as the concentration that gives 50% inhibition. A low value points to greater potency. Regarding `COc1cccc(-c2ccc(CC(NC(=O)C3(NC(=O)[C@@H](S)C(C)C)CCCC3)C(=O)O)cc2)c1OC` (stereo partly drawn), 350 nM corresponded to half-maximal inhibition (IC50).

`CC(C)[C@H](S)C(=O)NC1(C(=O)NC(Cc2ccc(-c3cncnc3)cc2)C(=O)O)CCCC1` (stereo partly drawn) gave an IC50 of 120 nM.

`COc1cc(OC)cc(-c2ccc(CC(NC(=O)C3(NC(=O)[C@@H](S)C(C)C)CCCC3)C(=O)O)cc2)c1` (stereo partly drawn) had an IC50 of 990 nM.

For `CC(C)[C@H](S)C(=O)NC1(C(=O)NC(Cc2ccc(-c3cccnc3)cc2)C(=O)O)CCCC1` (stereo partly drawn), the IC50 was 150 nM.

The compound `CC(C)[C@H](S)C(=O)NC1(C(=O)NC(Cc2ccc(-c3ccccn3)cc2)C(=O)O)CCCC1` (stereo partly drawn) displayed a half-maximal inhibitory concentration (IC50) of 220 nM.

(Values after ChEMBL document CHEMBL1134171, “Synthesis and biological activity of novel potent endothelin-converting enzyme-1 inhibitors” (Bioorg Med Chem Lett, 2001).)
